From patent US20090069373A1, “Quinoline Acids” (Wyeth, priority 2007, published 2009)

Tests used:
human LXRβ = target: T1, human LXRβ (Homo sapiens, UniProt P55055); test: Ligand-binding test procedure for human LXRβ (3H T0901317 competition, flash plates); conditions: for Binding ratio a/b: IC50 (μM) LXRα binding/IC50 (μM) LXRβ binding; for IC50: biotinylated hLXRβ, tracer 3H T0901317
T1 construct: biotin (biotinylated; biotinylation tag not described); made in house; host or cells: E. coli
T1 sequence (P55055 1-460): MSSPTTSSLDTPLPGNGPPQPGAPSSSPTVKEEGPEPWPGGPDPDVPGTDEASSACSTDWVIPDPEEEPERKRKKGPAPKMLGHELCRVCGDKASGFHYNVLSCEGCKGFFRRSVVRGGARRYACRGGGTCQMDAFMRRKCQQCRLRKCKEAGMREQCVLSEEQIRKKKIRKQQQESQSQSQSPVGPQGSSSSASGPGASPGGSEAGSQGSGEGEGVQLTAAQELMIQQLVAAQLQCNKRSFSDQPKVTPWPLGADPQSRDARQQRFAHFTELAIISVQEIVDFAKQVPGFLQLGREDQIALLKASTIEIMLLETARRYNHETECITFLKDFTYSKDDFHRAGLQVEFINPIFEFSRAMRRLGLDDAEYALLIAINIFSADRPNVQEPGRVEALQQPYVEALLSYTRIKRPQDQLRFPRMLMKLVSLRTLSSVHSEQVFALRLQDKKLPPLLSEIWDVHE
Procedure: Ligand-Binding Test Procedure for Human LXRβ.
Receptor source: E. coli extract from cells expressing biotinylated hLXRβ. Extract was made in a similar buffer as above, but with 50 mM TRIS.
(§1) Washed streptavidin and coated flash plates with wash buffer.
(§2) Diluted receptor extract to give Bmax ˜4000 cpm and add to the wells.
(§3) Wrapped the plates in aluminum foil and stored them at +4° C. over night.
(§4) Made a dilution series in DMSO of the test ligands.
(§5) Made a 5 nM solution of the radioactive tracer in buffer.
(§6) Mixed 250 μl diluted tracer with 5 μl of the test ligand from each concentration of the dilution series.
(§7) Washed the receptor-coated flash plates.
(§8) Added 200 μl per well of the ligand/radiolabel mixture to the receptor-coated flash plates.
(§9) Wrapped the plates in aluminum foil and incubate at +4° C. over night.
(§10) Aspirated wells, and wash the flashed plates. Sealed the plate.
(§11) Measured the remaining radioactivity in the plate.

human LXRα = target: T2, human LXRα (Homo sapiens, UniProt Q13133); test: Ligand-binding test procedure for human LXRα (3H T0901317 competition, flash plates); conditions: biotinylated hLXRα, tracer 3H T0901317
T2 construct: biotin (biotinylated; biotinylation tag not described); made in house; host or cells: E. coli
T2 sequence (Q13133 1-447): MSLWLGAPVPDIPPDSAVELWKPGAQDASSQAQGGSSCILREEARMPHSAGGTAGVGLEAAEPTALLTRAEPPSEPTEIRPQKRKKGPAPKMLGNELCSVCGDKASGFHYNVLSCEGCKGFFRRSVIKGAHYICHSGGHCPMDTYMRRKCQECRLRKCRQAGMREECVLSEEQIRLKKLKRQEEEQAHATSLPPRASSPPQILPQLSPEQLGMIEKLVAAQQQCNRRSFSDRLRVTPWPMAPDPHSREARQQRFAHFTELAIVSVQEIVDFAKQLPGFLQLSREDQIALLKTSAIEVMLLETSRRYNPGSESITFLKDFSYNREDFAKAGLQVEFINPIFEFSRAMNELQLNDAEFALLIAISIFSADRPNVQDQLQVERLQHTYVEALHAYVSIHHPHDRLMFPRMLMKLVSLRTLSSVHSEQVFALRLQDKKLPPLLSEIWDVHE
Procedure: Ligand-Binding Test Procedure for Human LXRα.
Receptor source: E. coli extract from cells expressing biotinylated hLXRα. Extract was made in a similar buffer as above, but with 50 mM TRIS.
as §1, §2, §3, §4, §5, §6, §7, §8, §9, §10, §11

Row | Structure (SMILES) | Binding ratio a/b (human LXRβ) | IC50 (human LXRβ) [µM] | IC50 (human LXRα) [µM]
1 | Cc1c(CC(=O)O)ccc(NCc2cccc(-c3ccnc4c(C(F)(F)F)cccc34)c2)c1C [Example 22, [2,3-dimethyl-4-({3-[8-(trifluoromethyl)quinolin-4-yl]benzyl}amino)phenyl]acetic acid] | 13 | 1.37 | 17.5
2 | O=C(O)c1ccc2cc(NCc3cccc(-c4c(Cc5ccccc5)cnc5c(C(F)(F)F)cccc45)c3)ccc2c1 [Example 23, 6-({3-[3-benzyl-8-(trifluoromethyl)quinolin-4-yl]benzyl}amino)-2-naphthoic acid] | 11 | 0.062 | 0.667
3 | Cc1cc(C(=O)O)c(C)cc1NCc1cccc(-c2c(C)cnc3c(C(F)(F)F)cccc23)c1 [Example 25, 2,5-dimethyl-4-({3-[3-methyl-8-(trifluoromethyl)quinolin-4-yl]benzyl}amino)benzoic acid] | 10 | 0.104 | 1.07
4 | Cc1cc(C(=O)O)cc(C)c1OCc1cccc(-c2c(Cc3ccccc3)cnc3c(C(F)(F)F)cccc23)c1 [Example 26, 4-({3-[3-benzyl-8-(trifluoromethyl)quinolin-4-yl]benzyl}oxy)-3,5-dimethylbenzoic acid] | 10 | 0.032 | 0.325
5 | O=C(O)CCc1ccc(NCc2cccc(-c3c(Cc4ccccc4)cnc4c(C(F)(F)F)cccc34)c2)cc1 [Example 27, 3-[4-({3-[3-benzyl-8-(trifluoromethyl)quinolin-4-yl]benzyl}amino)phenyl]propanoic acid] | 10 | 0.034 | 0.333
6 | O=C(O)c1cccc2c(NCc3cncc(-c4c(Cc5ccccc5)cnc5c(C(F)(F)F)cccc45)c3)cccc12 [Example 31, 5-[({5-[3-benzyl-8-(trifluoromethyl)quinolin-4-yl]pyridin-3-yl}methyl)amino]-1-naphthoic acid] | 8 | 0.21 | 1.74
7 | Cc1cc(NCc2ccsc2-c2c(Cc3ccccc3)cnc3c(C(F)(F)F)cccc23)c(C)cc1CC(=O)O [Example 32, {4-[({2-[3-benzyl-8-(trifluoromethyl)quinolin-4-yl]-3-thienyl}methyl)amino]-2,5-dimethylphenyl}acetic acid] | 8 | 0.427 | 3.33
8 | Cc1ccc(C(=O)O)c(NCc2cccc(-c3c(Cc4ccccc4)cnc4c(C(F)(F)F)cccc34)c2)c1 [Example 33, 2-({3-[3-benzyl-8-(trifluoromethyl)quinolin-4-yl]benzyl}amino)-4-methylbenzoic acid] | 8 | 0.166 | 1.29
9 | Cc1ccc(CC(=O)O)c(NCc2cccc(-c3c(Cc4ccccc4)cnc4c(C(F)(F)F)cccc34)c2)c1C [Example 35, [2-({3-[3-benzyl-8-(trifluoromethyl)quinolin-4-yl]benzyl}amino)-3,4-dimethylphenyl]acetic acid] | 7 | 0.131 | 0.961
10 | O=C(O)Cc1ccc(NCc2cncc(-c3c(Cc4ccccc4)cnc4c(C(F)(F)F)cccc34)c2)cc1 [Example 36, {4-[({5-[3-benzyl-8-(trifluoromethyl)quinolin-4-yl]pyridin-3-yl}methyl)amino]phenyl}acetic acid] | 7 | 0.191 | 1.36
11 | O=C(O)c1ccc2cc(OCc3cccc(-c4c(Cc5ccccc5)cnc5c(C(F)(F)F)cccc45)c3)ccc2c1 [Example 39, 6-({3-[3-benzyl-8-(trifluoromethyl)quinolin-4-yl]benzyl}oxy)-2-naphthoic acid] | 7 | 0.101 | 0.683
12 | O=C(O)C1CCN(C(=O)c2cccc(COc3cccc(-c4c(Cc5ccccc5)cnc5c(C(F)(F)F)cccc45)c3)c2)CC1 [Example 40, 1-[3-({3-[3-benzyl-8-(trifluoromethyl)quinolin-4-yl]phenoxy}methyl)benzoyl]piperidine-4-carboxylic acid] | 7 | 0.084 | 0.559
13 | O=C(O)c1ccc(F)cc1NCc1cccc(-c2c(Cc3ccccc3)cnc3c(C(F)(F)F)cccc23)c1 [Example 41, 2-({3-[3-benzyl-8-(trifluoromethyl)quinolin-4-yl]benzyl}amino)-4-fluorobenzoic acid] | 7 | 0.05 | 0.331
14 | Cn1cc(C(=O)O)c2cccc(NCc3cccc(-c4c(Cc5ccccc5)cnc5c(C(F)(F)F)cccc45)c3)c21 [Example 44, 7-({3-[3-benzyl-8-(trifluoromethyl)quinolin-4-yl]benzyl}amino)-1-methyl-1H-indole-3-carboxylic acid] | 6 | 0.165 | 1.05
15 | COc1cc(C(=O)O)ccc1OCc1cccc(-c2c(Cc3ccccc3)cnc3c(C(F)(F)F)cccc23)c1 [Example 45, 4-({3-[3-benzyl-8-(trifluoromethyl)quinolin-4-yl]benzyl}oxy)-3-methoxybenzoic acid] | 6 | 0.358 | 2.26
16 | O=C(O)c1ccc2cc(NCc3cccc(-c4ccnc5c(C(F)(F)F)cccc45)c3)ccc2c1 [Example 46, 6-({3-[8-(trifluoromethyl)quinolin-4-yl]benzyl}amino)-2-naphthoic acid] | 6 | 1.3 | 8

Compounds with a lower IC50 (human LXRβ), results first:

Row | Binding ratio a/b (human LXRβ) | IC50 (human LXRβ) [µM] | IC50 (human LXRα) [µM] | Structure (SMILES)
17 | 7 | 0.019 | 0.131 | O=C(O)CC1CCCc2c(OCc3cccc(-c4c(Cc5ccccc5)cnc5c(C(F)(F)F)cccc45)c3)cccc21 (stereo not drawn) [Example 37, [5-({3-[3-benzyl-8-(trifluoromethyl)quinolin-4-yl]benzyl}oxy)-1,2,3,4-tetrahydronaphthalen-1-yl]acetic acid]
18 | 8 | 0.009 | 0.072 | O=C(O)Cc1cccc(NCc2cccc(-c3c(Cc4ccccc4)cnc4c(C(F)(F)F)cccc34)c2)c1 [Example 30, [3-({3-[3-benzyl-8-(trifluoromethyl)quinolin-4-yl]benzyl}amino)phenyl]acetic acid]
19 | 16 | 0.008 | 0.133 | O=C(O)CC1=CCCc2c(OCc3cccc(-c4c(Cc5ccccc5)cnc5c(C(F)(F)F)cccc45)c3)cccc21 [Example 19, [5-({3-[3-benzyl-8-(trifluoromethyl)quinolin-4-yl]benzyl}oxy)-3,4-dihydronaphthalen-1-yl]acetic acid]
20 | 7 | 0.008 | 0.051 | O=C(O)CC1CCc2c(OCc3cccc(-c4c(Cc5ccccc5)cnc5c(C(F)(F)F)cccc45)c3)cccc21 (stereo not drawn) [Example 38, [4-({3-[3-benzyl-8-(trifluoromethyl)quinolin-4-yl]benzyl}oxy)-2,3-dihydro-1H-inden-1-yl]acetic acid]
21 | 9 | 0.007 | 0.066 | COc1cc(COc2cccc(-c3c(Cc4ccccc4)cnc4c(C(F)(F)F)cccc34)c2)ccc1C(=O)O [Example 28, 4-({3-[3-benzyl-8-(trifluoromethyl)quinolin-4-yl]phenoxy}methyl)-2-methoxybenzoic acid]
22 | 6 | 0.002 | 0.015 | O=C(O)CCc1cccc(NCc2cccc(-c3c(Cc4ccccc4)cnc4c(C(F)(F)F)cccc34)c2)c1 [Example 43, 3-[3-({3-[3-benzyl-8-(trifluoromethyl)quinolin-4-yl]benzyl}amino)phenyl]propanoic acid]
23 | 6 | 0.002 | 0.013 | Cc1cc(NCc2ccc(-c3c(Cc4ccccc4)cnc4c(C(F)(F)F)cccc34)s2)c(C)cc1CC(=O)O [Example 47, {4-[({5-[3-benzyl-8-(trifluoromethyl)quinolin-4-yl]-2-thienyl}methyl)amino]-2,5-dimethylphenyl}acetic acid]
